Patent US9539301B2, “Melanotropin ligands for skin care” (THE ARIZONA BOARD OF REGENTS ON BEHALF OF THE UNIVERSITY OF …, priority 2011, dated 2017)
pEC50, pKi: −log10 of the molar value. One block for each compound: values may come before it. Square brackets hold non-standard residues; d marks the D form. Side chains are listed from the residue outwards. Peptide text beside a SMILES is read from it. * marks the point of attachment. Cy5 maleimide = Cy5 dye as its maleimide, reacted with a thiol compound; d2Nal = N[C@H](Cc1ccc2ccccc2c1)C(=O)O; Butanoyl(4-Ph) = O=C(CCCc1ccccc1)*; Butanoyl(4-ethynyl) = C#CCCCC(=O)*; Nle = CCCC[C@H](N)C(=O)O; Mpa = O=C(O)CCS

What was measured:
MC1R = MC1R (Homo sapiens, UniProt Q01726); experiment: Europium time-resolved fluorescence competitive binding assay (Eu-NDP-α-MSH) on HCT116/hMC1R cells; set-up: host or cells: HCT116; conditions: for 1R/4R selectivity (values determined): ratio of MC4R Ki to MC1R Ki
Sequence of MC1R (Q01726 whole entry): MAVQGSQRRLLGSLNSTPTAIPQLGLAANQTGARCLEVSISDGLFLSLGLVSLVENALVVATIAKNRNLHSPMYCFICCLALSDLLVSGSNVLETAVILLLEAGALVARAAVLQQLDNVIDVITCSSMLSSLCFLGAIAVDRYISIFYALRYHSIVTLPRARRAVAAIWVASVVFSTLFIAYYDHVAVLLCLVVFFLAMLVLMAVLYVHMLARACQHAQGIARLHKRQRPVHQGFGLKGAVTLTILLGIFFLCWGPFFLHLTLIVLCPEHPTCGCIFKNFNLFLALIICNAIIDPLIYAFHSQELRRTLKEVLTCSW
Method: (§1) HCT116 cells overexpressing hMC1R and HEK293 cells overexpressing hMC4R[23] or hMC5R were used in all studies. […] Cells were maintained under standard conditions (37° C. and 5% CO2) and were grown in Dulbecco's modified Eagle medium (DMEM) supplemented with 10% FBS and 5% penicillin/streptomycin. For HCT116/hMC1R cells, geneticin (G418S, 0.4 mg/mL) was added to the media to ensure proper selection.
Competitive binding assays were performed using HCT116/hMC1R cells and HEK293/hMC4R or hMC5R as previously described, with slight modifications. […] Poly-D-Lysine Coated Plates contain a PDL polymer coating that creates a uniform positive charge at the surface of the plastic, thereby facilitating cell attachment, growth and differentiation. […] Both labeled and non-labeled ligands were diluted in binding media (DMEM, 1 mM 1,10-phenanthroline, 200 mg/L bacitracin, 0.5 mg/L leupeptin, 0.3% BSA). In the case of the triblock polymer micelle solutions, micelles were allowed to equilibrate in solution for a period of 30 min prior to cell addition. Cells were incubated with labeled and non-labeled ligands for 1 hour at 37° C. Following incubation, cells were washed three times with wash buffer (50 mM Tris-HCl, 0.2% BSA, 30 mM NaCl) and 50 µL of enhancement solution (PerkinElmer) was added to each well. Cells were incubated for an additional 30 min at 37° C. prior to reading. […] Competition curves were analyzed with GraphPad Prism software using the sigmoidal dose-response (variable slope) classical equation for nonlinear regression analysis.
Competitive binding assays were also performed using 4-targeted triblock polymers, triblock polymer micelles, as well as untargeted micelles as a control (FIG. 4A-C).
Europium binding assays were conducted as previously published.^33, 40
Time-resolved lanthanide fluorescence competitive binding assays^33, 40 were performed in an effort to optimize ligand loading for maximal avidity. In these assays, increasing concentrations of micelles were measured for their ability to competitively displace Eu-labeled NDP-α-MSH 2. The remaining Eu was then measured using time resolved fluorescence (TRF, see Methods).

MC5R [1] = biological target: T1, MC5R (Homo sapiens, UniProt P33032); experiment: Europium competitive binding assay on HEK293/hMC5R cells; set-up: expressed in transfected cells; host or cells: HEK293
T1 sequence (P33032 whole entry): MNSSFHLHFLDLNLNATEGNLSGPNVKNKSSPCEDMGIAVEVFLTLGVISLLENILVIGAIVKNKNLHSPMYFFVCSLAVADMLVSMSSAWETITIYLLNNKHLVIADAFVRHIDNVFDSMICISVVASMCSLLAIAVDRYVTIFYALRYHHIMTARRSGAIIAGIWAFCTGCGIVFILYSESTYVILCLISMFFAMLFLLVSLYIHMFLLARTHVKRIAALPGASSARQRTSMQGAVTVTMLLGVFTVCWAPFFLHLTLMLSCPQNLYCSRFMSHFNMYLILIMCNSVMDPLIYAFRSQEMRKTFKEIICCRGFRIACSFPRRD
Method: HCT116 cells overexpressing hMC1R and HEK293 cells overexpressing hMC4R[23] or hMC5R were used in all studies. The parental human colorectal carcinoma cell line, HCT116 (American Type Culture Collection, CCL 247) was also used. Cells were maintained under standard conditions (37° C. and 5% CO2) and were grown in Dulbecco's modified Eagle medium (DMEM) supplemented with 10% FBS and 5% penicillin/streptomycin. For HCT116/hMC1R cells, geneticin (G418S, 0.4 mg/mL) was added to the media to ensure proper selection.
Competitive binding assays were performed using HCT116/hMC1R cells and HEK293/hMC4R or hMC5R as previously described, with slight modifications. HCT116/hMC1R cells were plated in black PerkinElmer 96-well plates and HEK293/hMC4R and HEK293/hMC5R cells were plated on SigmaScreen Poly-D-Lysine Coated Plates (SigmaAldrich), all at a density of 10,000-30,000 cells/well. […] Cells were incubated for an additional 30 min at 37° C. prior to reading. The plates were read on a PerkinElmer VICTOR×4 2030 multilabel reader using the standard Eu TRF measurement (340 nm excitation, […], and emission collection for […] at 615 nm). Competition curves were analyzed with GraphPad Prism software using the sigmoidal dose-response (variable slope) classical equation for nonlinear regression analysis. […]

MC4R = MC4R (Homo sapiens, UniProt P32245); experiment: Europium competitive binding assay on HEK293/hMC4R cells; set-up: expressed in transfected cells; host or cells: HEK293
Sequence of MC4R (P32245 whole entry): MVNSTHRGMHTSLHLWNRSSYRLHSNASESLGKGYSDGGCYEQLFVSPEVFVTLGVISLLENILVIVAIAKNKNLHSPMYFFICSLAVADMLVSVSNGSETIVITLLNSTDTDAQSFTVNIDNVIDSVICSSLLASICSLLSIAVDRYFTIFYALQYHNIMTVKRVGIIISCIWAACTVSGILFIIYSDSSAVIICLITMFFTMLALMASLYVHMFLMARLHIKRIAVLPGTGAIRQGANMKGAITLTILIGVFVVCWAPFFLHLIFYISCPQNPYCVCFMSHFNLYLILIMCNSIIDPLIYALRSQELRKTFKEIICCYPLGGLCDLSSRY
Method: as §1
Competitive binding assays were performed using HCT116/hMC1R cells and HEK293/hMC4R or hMC5R as previously described, with slight modifications. HCT116/hMC1R cells were plated in black PerkinElmer 96-well plates and HEK293/hMC4R and HEK293/hMC5R cells were plated on SigmaScreen Poly-D-Lysine Coated Plates (SigmaAldrich), all at a density of 10,000-30,000 cells/well. Poly-D-Lysine Coated Plates contain a PDL polymer coating that creates a uniform positive charge at the surface of the plastic, thereby facilitating cell attachment, growth and differentiation. […] Both labeled and non-labeled ligands were diluted in binding media (DMEM, 1 mM 1,10-phenanthroline, 200 mg/L bacitracin, 0.5 mg/L leupeptin, 0.3% BSA). […] Cells were incubated for an additional 30 min at 37° C. prior to reading. […] Competition curves were analyzed with GraphPad Prism software using the sigmoidal dose-response (variable slope) classical equation for nonlinear regression analysis.

MC5R [2] = biological target: T1, MC5R; conditions: footnote: value denotes an EC50; read-out: EC50 MC5R (values derived from literature); cited from earlier work
[3] = tested on: A375/MC1R xenograft tumor; experiment: Intravital confocal imaging of dorsal skin-fold window chamber tumor xenograft; assay type: in vivo, SCID mouse; conditions: for tumor cell internalization of probe: 24 h after injection
Method: All procedures were carried out in compliance with the Guide for the Care and Use of Laboratory Animal Resources (1996), National Research Council, and approved by the Institutional Animal Care and Use Committee, University of South Florida. A dorsal skin-fold window chamber was used to study the pharmacokinetics of imaging agent uptake immediately after i.v. injection of the probe. Starting 3 days prior to the surgery, mice were daily administered 1 ml of sterile saline subcutaneously at the planned site of the window in order to loosen connective tissue and create a receiving “pocket”. SCID mice were prepared immediately before surgery; the surgical site was shaved, and then a combination of oxygen and isoflurane was used for anesthesia (animals underwent induction with 3.5% isoflurane and were maintained at 1.5-2.0%). The window chamber method utilizes a titanium steel or plexiglass “saddle” that is sutured to the back of the mouse and holds a flap of dorsal skin vertically away from the mouse's body. A small “window” of skin (approximately 5 mm in diameter) was surgically excised from the retained skin flap of the anesthetized SCID mouse. Tumor constructs were engineered using the tumor droplet method. A375/MC1R or A375 parental melanoma cells were suspended in 2.5 mg/ml of type I collagen (BD Biosciences #354249) and 1×DMEM at a final concentration of 2.5×10^6 cells/ml. Using a 48-well non-tissue culture plate, a 15 µl drop of the tumor cell suspension was polymerized in the center of the well. After brief polymerization (10-15 minutes) at 37° C., a microvessel outer layer was added that completely surrounded the droplet. The microvessel outer layer consisted of 3 mg/ml of type I collagen, 1×DMEM and, 12,000 to 15,000 GFP expressing rat microvessel fragments/ml. After 4-6 days of culture at 37 C, the constructs were then implanted into the “window chamber” by placing them directly onto the exposed subcutaneous fascia. A glass cover was then attached to the center of the “saddle” to cover the fascia and implanted tumor cells. […]

Compound: CC(=O)N[C@@H](CCc1ccccc1)C(=O)N[C@@H](Cc1cnc[nH]1)C(=O)N[C@H](Cc1ccccc1)C(=O)N[C@@H](CCCN=C(N)N)C(=O)N[C@@H](Cc1c[nH]c2ccccc12)C(N)=O [Compound 2, Ac-Homophenylalanine-His-DPhe-Arg-Trp-NH2]
pKi (MC1R; HCT116/hMC1R cells, competition with Eu-NDP-α-MSH, read-out: Ki MC1R (values determined)): 8.75

Compound: N=C(N)NCCC[C@H](NC(=O)[C@@H](Cc1ccccc1)NC(=O)[C@H](Cc1c[nH]cn1)NC(=O)C=Cc1ccc(O)cc1)C(=O)N[C@@H](Cc1c[nH]c2ccccc12)C(N)=O [Compound 3, 4-hydroxycinnamoyl-His-DPhe-Arg-Trp-NH2]
Ki MC5R (values determined) (MC5R [1]): no affinity
Ki MC1R (values determined) (MC1R; HCT116/hMC1R cells, competition with Eu-NDP-α-MSH): no affinity
Ki MC4R (values determined) (MC4R): no affinity

Compound: CCCC[C@H](NC(=O)[C@@H](NC(=O)[C@@H](N)Cc1ccc(O)cc1)C(C)C)C(=O)NCC(=O)N[C@@H](Cc1cnc[nH]1)C(=O)N[C@H](Cc1ccc2ccccc2c1)C(=O)N[C@@H](CCCN=C(N)N)C(=O)N[C@H](Cc1c[nH]c2ccccc12)C(=O)N[C@@H](CC(=O)O)C(=O)N[C@@H](CCCN=C(N)N)C(=O)N[C@@H](Cc1ccccc1)C(=O)NCC(N)=O [Compound 5, H-Tyr-Val-Nle-Gly-His-DNal(2′)-Arg-DTrp-Asp-Arg-Phe-Gly-NH2]
pEC50 (MC5R [2]): 8.46

Compound: MC1R-Cy5: MC1R ligand conjugated to Cy5 maleimide dye ({Butanoyl(4-Ph)}-H[dF]RWGK([Mpa-Cy5 maleimide])-NH2)
tumor cell internalization of probe [3]: fully internalized
tumor cell internalization of probe ([3]; listed as MC1R-635 probe): detected inside the cells
time at which probe binds tumor cells in vivo ([3]; after i.v. injection, 5 nmol/kg): ≤ 5 min

Second part, the compound after the results:

1R/4R selectivity (values determined) (MC1R): 1000
1R/5R selectivity (values determined) (MC1R; ratio of MC5R Ki to MC1R Ki): 200
Compound: C#CCCCC(=O)NCCCC[C@H](NC(=O)CNC(=O)[C@H](Cc1c[nH]c2ccccc12)NC(=O)[C@H](CCCNC(=N)N)NC(=O)[C@@H](Cc1ccccc1)NC(=O)[C@H](Cc1c[nH]cn1)NC(=O)CCCc1ccccc1)C(N)=O [Compound 4, 4-phenylbutyry1-His-DPhe-Arg-Trp-Gly-Lys(hex-5-ynoyl)-NH2] ({Butanoyl(4-Ph)}-H[dF]RWGK(Butanoyl(4-ethynyl))-NH2)

pKi (MC5R [1]; read-out: Ki MC5R (values determined)): 8.83
pKi (MC4R; read-out: Ki MC4R (values determined)): 8.76
Compound: C#CCCCC(=O)NCCCC[C@H](N)C(=O)N[C@@H](Cc1ccc(O)cc1)C(=O)N[C@H](C(=O)N[C@@H](CCCC)C(=O)NCC(=O)N[C@@H](Cc1cnc[nH]1)C(=O)N[C@H](Cc1ccc2ccccc2c1)C(=O)N[C@@H](CCCNC(=N)N)C(=O)N[C@H](Cc1c[nH]c2ccccc12)C(=O)N[C@@H](CC(=O)O)C(=O)N[C@@H](CCCNC(=N)N)C(=O)N[C@@H](Cc1ccccc1)C(=O)NCC(N)=O)C(C)C [Compound 6, H-Lys(hex-5-ynoyl)-Tyr-Val-Nle-Gly-His-DNal(2′)-Arg-DTrp-Asp-Arg-Phe-Gly-NH2]

1R/4R selectivity (values determined) (MC1R): 1.05
Compound: C#CCCCC(=O)NCCCC[C@H](N)C(=O)N[C@@H](Cc1ccc(O)cc1)C(=O)N[C@H](C(=O)N[C@@H](CCCC)C(=O)NCC(=O)N[C@@H](Cc1c[nH]cn1)C(=O)N[C@H](Cc1ccc2ccccc2c1)C(=O)N[C@@H](CCCNC(=N)N)C(=O)N[C@H](Cc1ccccc1)C(=O)N[C@@H](CC(=O)O)C(=O)N[C@@H](CCCNC(=N)N)C(=O)N[C@@H](Cc1ccccc1)C(=O)NCC(N)=O)C(C)C [Compound 8, H-Lys(hex-5-ynoyl)Tyr-Val-Nle-Gly-His-DNal(2′)-Arg-DPhe-Asp-Arg-Phe-Gly-NH2] (H-K(Butanoyl(4-ethynyl))YV[Nle]GH[d2Nal]R[dF]DRFG-NH2)
